Assay results: patent publication US5883136A, “Anhydroretinol and derivatives thereof as antagonists of immune responses and inhibitors of cancer cell growth” (Sloan-Kettering Institute for Cancer Research, priority 1995, dated 1999)
pKd: −log10 of the molar value. Read-outs that look alike come from different tables or passages of the source.

Assays:
[1] = target: T1, serum retinol binding protein (RBP) (Homo sapiens, UniProt P02753); experiment: Dissociation constant to serum retinol binding protein by fluorometric titration
T1 construct: Human RBP was purified from human serum; from tissue; host or cells: human serum
Procedure: (§1) Apo-protein (1-3 μM) was titrated with the appropriate all-trans-retinoid dissolved in ethanol and the titration was followed by measuring the increase in the fluorescence of the retinoids upon binding. Reaction mixtures included 150 mM NaCl, 0.1 mM DTT, and 25 mM HEPES; pH's were 7.0 and 7.4, respectively. […] Data analyses were performed as described by Cogan et al. (14). Human RBP was purified from human serum by means of a transthyretin column (15). Human CRBP I and CRABP I were gifts from Dr. W. S. Blaner (Columbia University, New York, N.Y.) and Dr. J. Napoli (SUNY, Buffalo, N.Y.), respectively.

[2] = target: T2, cellular retinol binding protein (CRBP I) (Homo sapiens, UniProt P09455); experiment: Dissociation constant to cellular retinol binding protein by fluorometric titration; conditions: for pKd: fluorometric titration, 150 mM NaCl, 0.1 mM DTT, 25 mM HEPES
T2 sequence (P09455 1-135): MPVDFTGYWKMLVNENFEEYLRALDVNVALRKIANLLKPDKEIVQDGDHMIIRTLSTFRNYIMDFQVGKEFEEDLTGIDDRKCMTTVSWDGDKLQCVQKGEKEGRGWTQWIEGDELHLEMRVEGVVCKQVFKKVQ
Procedure: as §1

[3] = target: cellular retinoic acid binding protein (CRABP I) (Homo sapiens, UniProt P29762); experiment: Dissociation constant to cellular retinoic acid binding protein by fluorometric titration; conditions: no binding = no significant binding could be detected
Procedure: as §1

interleukin-2 (IL-2) = experiment: IL-2 release by stimulated thymocytes, CTLL assay; type: cell-based, murine; conditions: for IL-2 production: presence or absence of retinol or 14-HRR, previous unpublished work
Procedure: (§2) Murine thymocytes (2×10^5 /well in triplicates) were cultured in ITLB medium in 96-well plates coated with 10 μg/ml anti-CD3^ε mAB (12) as described (3). […] Cell proliferation was tested on day 3 by ^3 H thymidine incorporation into DNA. […] The results of cell proliferation assays performed at 72 hours are shown. […] CTLL proliferation was measured by ^3 H thymidine incorporation into DNA (FIG. 4D). The standard deviation of triplicate measurements were <10%.

CTLL cell line = CTLL cell line proliferation, 3H thymidine incorporation; type: cell-based; conditions: for CTLL proliferation: control experiments; for CTLL responsiveness to retinol and AR: with recombinant IL-2, broad dose ranges, data not shown
Procedure: as §2

IL-2 receptor = IL-2 receptor expression of activated T cells; type: cell-based; conditions: presence or absence of retinol or 14-HRR, previous unpublished work
[4] = test system: Il-2 dependent TH cell clones and T cell hybridoma; experiment: Growth of Il-2 dependent TH cell clones and T cell hybridoma; type: cell-based; conditions: previous unpublished observations
Murine thymocytes [5] = conditions: T cell receptor-generated signals, serum-free medium, ref. (3); cited from earlier work
[6] = test system: T cell leukemia line Jurkat; experiment: Jurkat T cell leukemia growth, viable cell count with trypan blue; type: cell-based, human
Source text: Viable cells in each culture were counted. On days 4 and 6 nutrients were replenished.
The T cell leukemia line Jurkat was transferred from normal, FCS-containingmedium to serum-free medium ITLB. […] Cells were counted daily differentially in the presence of trypan blue, and the total number of cells generated in each culture plotted in FIG. 3A. It is evident that cells deprived of retinol decline in numbers as compared to cells with retinol.

[7] = test system: Human B lymphoblastoid cells (5/2); experiment: B lymphoblastoid cell proliferation, 3H thymidine incorporation; type: cell-based
Procedure: (§3) Human B lymphoblastoid cells (e.g., cell line 5/2) were cultured in medium RPMI 1640 with 7% fetal calf serum. On the day of the assay, cells were washed and transferred to serum-free medium, RPMI 1640 supplemented with insulin, transferrin, linoleic acid, and bovine albumin (ITLB medium) as described (3). Test reagents at indicated concentrations were added to triplicate cultures of […] in 96 well plates (final volume of 200 μl/well) and cell proliferation tested 1 day (FIGS. 2B, 2C, 2D) or 3 days later (FIG. 2A) by ^3 H thymidine incorporation into DNA. […] Three additional human lymphoblastoid cell lines, Hom 2, Jest and Ducaf were tested under the conditions specified for FIG. 2A (FIG. 2D).

[8] = test system: human lymphoblastoid cell lines; experiment: B lymphoblastoid cell proliferation, 3H thymidine incorporation (Hom 2, Jest, Ducaf); type: cell-based; conditions: several randomly selected lines, FIG. 2D
Procedure: as §3

murine B cell lymphoma = experiment: Inhibition of murine B cell lymphoma by AR; type: cell-based
Murine thymocytes [9] = experiment: Activation of murine thymocytes with anti-CD3, 3H thymidine incorporation; type: cell-based
Procedure: as §2

14-HRR synthesis = experiment: Metabolic rate of 14-HRR synthesis from 3H labelled retinol; type: cell-based; conditions: hundredfold excess of AR, data not shown
Source text: Therefore, competitive inhibition at the level of CRBP is a realistic possibility to explain the retinol-AR antagonism. […] By inference, a separate 14-HRR binding protein/receptor, as yet to be defined, may exist.

lymphocytes [10] = experiment: Metabolism by lymphocytes to retinol or 14-HRR; type: in vitro ADME; conditions: unpublished data
SF 21 cells = experiment: Metabolites of [3H] retinol in SF 21 cells, HPLC; type: in vitro ADME, insect; conditions: SF 21, 4 hours, FIG. 1B
Procedure: (§4) After 4 hours (FIGS. 1A and 1B) or after 16 hours (FIG. 1C) retinoids were extracted from the washed cell pellet according to the procedure of McClean et al. (16). Retinoids were separated on an analytical C18 reversed-phase column and detected with an on-line scintillation counter using the methodology described in Buck et al. (4). […] The peak eluting at minute 29 is the all-trans anhydroretinol, whereas the companion peaks at minute 27 and 28 represent cis-isomers (14). All isomers yield spectra with characteristic vibronic fine structure similar to the spectrum of all-trans AR.

SF-9 cells = experiment: Metabolites of [3H] retinol in SF-9 cells, HPLC; type: in vitro ADME, insect; conditions: SF-9, 4 hours, FIG. 1A
Procedure: as §4

[11] = test system: Human lymphoblastoid 5/2 cells; experiment: Metabolites of [3H] retinol in lymphoblastoid 5/2 cells, HPLC; type: in vitro ADME; conditions: 5/2, 16 hours, FIG. 1C
Procedure: as §4

DU145 = experiment: Tumor cell sensitivity to anhydroretinol, prostate carcinoma; type: cell-based; conditions: DU145, FIG. 6A
Source text: (§5) FIGS. 6A-6B show titrations for the inhibition by AR of prostate carcinoma cell lines DU145, PC-3 and LNCAP.

LNcAP = experiment: as above; type: cell-based; conditions: FIG. 6C
Source text: as §5

B lymphocyte = B lymphocyte proliferation (summary statement); type: cell-based
resting T lymphocytes = experiment: Activation of resting T lymphocytes (summary statement); type: cell-based
lymphocytes [12] = experiment: Cultures of lymphocytes with 14-HRR as agonist; type: cell-based; conditions: FIGS. 2B and 4B

Chain of cellular retinoic acid binding protein (CRABP I) (P29762 whole entry): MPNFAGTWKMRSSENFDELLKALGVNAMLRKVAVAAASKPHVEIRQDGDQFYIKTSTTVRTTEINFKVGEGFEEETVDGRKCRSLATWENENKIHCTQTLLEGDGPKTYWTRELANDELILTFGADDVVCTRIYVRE

CC(C=CC=C(C)C(O)CO)=CC=C1C(C)=CCCC1(C)C (stereo not drawn) [Compound 14-HRR, 14-hydroxy-4,14-retro-retinol]
pKd [1]: 6.92 | binding to CRBP [2]: does not bind to CRBP with appreciable affinity | dissociation constant CRBP I (binding in words) ([2]; no binding = no significant binding could be detected): no binding | dissociation constant CRABP I (binding in words) [3]: no binding | IL-2 production (interleukin-2 (IL-2)): unaffected | CTLL proliferation (CTLL cell line): completely inert | IL-2 receptor expression (IL-2 receptor): unaffected | growth dependence on retinol and 14-HRR [4]: grow independently | activation of resting thymocytes, cofactor dependence (Murine thymocytes [5]): dependent on retinoid cofactors

CC1=C(/C=C/C(C)=C/C=C/C(C)=C/CO)C(C)(C)CCC1 [retinol, all-trans retinol]
pKd [2]: 7.89 | dissociation constant CRABP I (binding in words) [3]: no binding | rescue of Jurkat cells on reintroduction of retinol ([6]; after day 6): allows rescue of the cells | dependence of Jurkat cells on retinol ([6]; serum-free medium ITLB, 4×10^-6 M retinol): retinol-dependent | IL-2 production (interleukin-2 (IL-2)): unaffected | CTLL proliferation (CTLL cell line): completely inert | CTLL responsiveness to retinol and AR (CTLL cell line): independent of either retinoid | IL-2 receptor expression (IL-2 receptor): unaffected | growth dependence on retinol and 14-HRR [4]: grow independently | activation of resting thymocytes, cofactor dependence (Murine thymocytes [5]): dependent on retinoid cofactors

C=CC(C)=CC=CC(C)=CC=C1C(C)=CCCC1(C)C [AR, Anhydroretinol]
pKd ([1]; fluorometric titration, 150 mM NaCl, 0.1 mM DTT, 25 mM HEPES, read-out: dissociation constant RBP): 7.70 | pKd [2]: 7.64 | dissociation constant CRABP I (binding in words) [3]: no binding | antagonism of 14-HRR ([7]; AR 5×10^-6 M vs 1.3×10^-6 M 14-HRR, FIG. 2B): clear antagonism | antagonism of retinol ([7]; AR 5×10^-6 M vs 3.7×10^-6 M retinol, FIG. 2A): clear antagonism | support of B cell proliferation ([7]; FIG. 2A): nor does it support B cell proliferation | inhibition of B cell cultures ([7]; graded concentrations of fetal calf serum (FIG. 2C) or RBP/retinol complex (data not shown)): strongly inhibitory | ID50 values ([7]; graded concentrations of fetal calf serum or RBP/retinol complex): comparable to those seen in retinol-supplemented cultures | inhibitory dose (ID50) ([7]; serum-free medium supplemented with retinol or 14-HRR): dependent on the agonist concentration | competitive antagonism of retinol or 14-HRR ([7]; serum-free medium with retinol or 14-HRR, FIGS. 2A, 2B): competitive antagonist | growth inhibition of B cell cultures ([7]; ten percent fetal bovine serum containing medium, FIG. 2C): strong growth inhibition | sensitivity to inhibition by AR [8]: all proved sensitive to inhibition | sensitivity to inhibition by AR (murine B cell lymphoma): all proved sensitive to inhibition | thymidine uptake of cycling thymocytes (Murine thymocytes [9]; AR given 2 days after activation, FIG. 4C): able to reduce the thymidine uptake of cycling thymocytes | inhibition of thymocyte activation (Murine thymocytes [9]; retinol or 14-HRR as cofactor, anti-CD3, FIGS. 4A, 4B): pronounced | IL-2 release (interleukin-2 (IL-2); supernatants after 18 hours, FIG. 4D): did not interfere with IL-2 release | CTLL proliferation (CTLL cell line): completely inert | CTLL responsiveness to retinol and AR (CTLL cell line): independent of either retinoid | metabolic rate of 14-HRR synthesis (14-HRR synthesis): no change | metabolism by lymphocytes to retinol or to 14-HRR (lymphocytes [10]): not metabolized | AR as metabolite of [3H] retinol (SF 21 cells): predominant metabolite | AR as metabolite of [3H] retinol (SF-9 cells): undetectable | AR as metabolite of [3H] retinol [11]: also produced AR | inhibition by AR, relative sensitivity (DU145): highest sensitivity | inhibition by AR, relative sensitivity (LNcAP): appears to be insensitive | B lymphocyte proliferation (B lymphocyte): block B lymphocyte proliferation | aid to B cell proliferation (B lymphocyte): not to aid B cell proliferation | activation of resting T lymphocytes (resting T lymphocytes): block B lymphocyte proliferation as well as activation of resting T lymphocytes | inhibition of lymphocyte cultures with 14-HRR as agonist (lymphocytes [12]): reversibly inhibits
